For the experiment, the target named is T1, BpsDsbA (oxidized) (Burkholderia pseudomallei, UniProt Q63Y08).
T1 construct: gene dsbA
Kind of experiment: biochemical.

Molecules are shown by their SMILES.

T1 sequence (Q63Y08 16-212 limits assumed): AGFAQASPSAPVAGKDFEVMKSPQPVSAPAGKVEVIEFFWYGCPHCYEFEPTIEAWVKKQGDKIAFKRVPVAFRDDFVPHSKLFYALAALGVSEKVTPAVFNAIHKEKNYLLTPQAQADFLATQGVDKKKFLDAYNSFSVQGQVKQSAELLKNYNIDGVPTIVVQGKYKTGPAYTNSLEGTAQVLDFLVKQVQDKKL

`COc1ccc(S(=O)(=O)Nc2ccccc2)cc1` [compound 2, 4-methoxy-N-phenylbenzenesulfonamide] gave a dissociation constant Kd of more than 2000 µM.

The term Kd denotes the constant that tells how readily two partners part at equilibrium. High values mean a looser complex, low ones a tighter complex.
